Earlier results as cited in EP1085805B1, “USE OF AT LEAST ONE ACID FROM THE CITRIC ACID CYCLE COMBINED WITH GLYCERINE AS A PESTICIDE” (Biolink Technologies AG, priority 1998, dated 1999).

## ClC1=C(Cl)[C@]2(Cl)[C@@H]3[C@@H]4C[C@@H]([C@H]5O[C@@H]45)[C@@H]3[C@@]1(Cl)C2(Cl)Cl [Dieldrin]
  LD50 Wert Ratte oral: 56 mg/kg Körpergewicht

## Cl[C@H]1[C@H](Cl)[C@@H](Cl)[C@@H](Cl)[C@H](Cl)[C@H]1Cl [Lindan]
  LD50 Wert Ratte oral: 88 mg/kg Körpergewicht
